Data taken from US10709688B2, “Agent for treating synucleinopathy” (TOHOKU UNIVERSITY, priority 2016, dated 2020).

Experiments:
GST-FABP3 = GST-FABP3 (Mus musculus (Mouse), UniProt P11404); experiment: Test Example 13: affinity of FABP ligand using ANS, GST-FABP3; assay type: binding; conditions: ANS fluorescence; average of three measurements±SE; read-out: Kd value of FABP against the ligands, GST-FABP3
Experimental: Pt: FABP protein concentration (=400 nM);

FABP3 = FABP3 (Homo sapiens (Human), UniProt P05413); experiment: Evaluation of FABP3 ligand activity, fluorescent displacement assay using 1,8-ANS; assay type: binding; conditions: 1,8-ANS displacement; average of two measurements
FABP3, sequence (P05413 whole entry, species assumed): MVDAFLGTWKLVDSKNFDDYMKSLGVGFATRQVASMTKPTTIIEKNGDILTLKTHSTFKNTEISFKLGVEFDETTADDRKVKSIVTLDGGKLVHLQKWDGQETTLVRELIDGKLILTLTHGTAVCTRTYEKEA
Experimental: Adopted for evaluation in the evaluation of FABP3 ligand activity was a fluorescent displacement assay using 1,8-ANS (1-anilino-8-naphthalenesulfonic acid). Fluorescent materials such as 1,8-ANS are characterized by an increase in the fluorescent intensity under a hydrophobic environment. […] Ethanol was used as the dilution solvent of the compounds.
To each well was added as a detection reagent, a 1,8-ANS (ALDRICH) solution (10 μM, ethanol/sodium phosphate buffer solution=1:4 v/v, 25 μL), and ethanol solutions of compounds diluted to different concentrations were added in an amount of 10 μL each (the final ethanol concentration was 15%). The plate was shaken for 10 sec. in the plate reader and incubated for 10 min. at room temperature. […] Used for measurement was ARVO™ X One by PerkinElmer Japan.
(§1) Measurement was performed twice each, and the average was adopted as the result. The software, Origin, available from Light Stone was used for calculating IC50.

[1] = test system: TH and α-synuclein double positive cells of substantia nigra, MPTP model mice; experiment: Test Example 12: suppression of α-synuclein aggregation in MPTP Parkinson's disease model mice; assay type: in vivo, mouse; conditions: p.o. once every day (Example 1: 0.1, 0.3 or 1.0 mg/kg; others 1.0 mg/kg), four weeks after MPTP, FIG. 12
Experimental: MPTP (25 mg/kg, i.p.) was administered once every day for 5 consecutive days to a 10 week old male C57BL6 N mice to prepare a Parkinson's disease model mice. […] Four weeks after MPTP administration, at which time a loss in the dopamine neuron and formation of α-synuclein multimers are observed, a mouse was fixed under perfusion to prepare a brain slice 50 μm thick that includes a substantia nigra region. The brain slice was reacted with an anti-TH antibody (mouse monoclonal antibody 22941 produced by Immunostar, 1:1000) and an anti-α-synuclein antibody (rabbit polyclonal antibody SC-7011-R produced by Santa Cruz, 1:200) and detected by a fluorescence-labeled, secondary antibody (Alexa 488 anti-rabbit IgG (produced by Jackson ImmunoResearch, 1:500)) to evaluate the number of positive cells.

[2] = test system: MPTP Parkinson's disease model C57BL6 N mice; experiment: Test Example 10: cognitive function in MPTP Parkinson's disease model mice; assay type: in vivo, mouse; conditions: p.o. once every day (Example 1: 0.1, 0.5 or 1.0 mg/kg; others 1.0 mg/kg), four weeks after MPTP, FIG. 10
Experimental: MPTP (25 mg/kg, i.p.) was administered once every day for 5 consecutive days to a 10 week old male C57BL6 N mice to prepare a Parkinson's disease model mice. […] Four weeks after administration of MPTP, at which time cognitive dysfunction was observed, the cognitive function was evaluated by a novel object recognition test and a passive avoidance test. The passive avoidance test was performed by putting a mouse in a light room and applying electric shock (0.3 mA, 2 second) on the mouse when it entered the dark room in the train run. Twenty four hours later, the mouse was put in the light room again, and the time until the mouse entered the dark room was measured.

[3] = test system: dopamine neurons (TH positive cells) of substantia nigra, MPTP model mice; experiment: Test Example 11: dopamine neuroprotection in MPTP Parkinson's disease model mice; assay type: in vivo, mouse; conditions: p.o. once every day (Example 1: 0.1, 0.3 or 1.0 mg/kg; others 1.0 mg/kg), four weeks after MPTP, FIG. 11
Experimental: MPTP (25 mg/kg, i.p.) was administered once every day for 5 consecutive days to a 10 week old male C57BL6 N mice to prepare a Parkinson's disease model mice. […] Four weeks after MPTP administration, at which time a loss in the dopamine neuron and formation of α-synuclein multimers are observed, the mouse was fixed under perfusion to prepare a brain slice 50 μm thick that includes a substantia nigra region.

[4] = test system: MPTP Parkinson's disease model C57BL6 N mice; experiment: Test Example 7: cognitive function in MPTP Parkinson's disease model animal; assay type: in vivo, mouse; conditions: 1.0 mg/kg p.o. daily 2 weeks, four weeks after MPTP, FIG. 7
Experimental: 1-Methyl-4-phenyl-1,2,3,6-tetrahydropyridine (MPTP, 25 mg/kg, i.p., purchased from Sigma-Aldrich (St Louis, Mo.)), which is a dopamine neurotoxin, was administered once every day for 5 consecutive days to a 10 week old male C57BL6 N mice, to prepare a Parkinson's disease model animal. From 24 hours after the final administration of MPTP, the solvent or FABP3 ligand (compound of Example 3, 1.0 mg/kg, p.o., each group n=7) was administered once every day for 2 weeks. Four weeks after administration of MPTP, at which time cognitive dysfunction was observed, the cognitive function was evaluated by a novel object recognition test.

FABP4 = FABP4 (Homo sapiens (Human), UniProt P15090); experiment: Evaluation of FABP4 ligand activity, fluorescent displacement assay using 1,8-ANS (Cayman assay kit); assay type: binding; conditions: 1,8-ANS displacement; average of two measurements
FABP4, sequence (P15090 whole entry): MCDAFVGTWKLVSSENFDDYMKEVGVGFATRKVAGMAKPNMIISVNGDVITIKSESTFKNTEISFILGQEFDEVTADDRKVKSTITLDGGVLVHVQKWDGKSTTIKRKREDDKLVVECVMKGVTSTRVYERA
Experimental: An evaluation of FABP4 was performed using a fluorescent displacement assay using 1,8-ANS, similar to FABP3. Used in the evaluation of FABP4 was an assay kit (FABP4 Inhibitor/Ligand Screening Assay Kit) available from Cayman Chemical Company. Ethanol was used as a solvent for dissolving the compound, and an arachidonic acid which comes with the kit was used as a positive control. The measurement procedure was performed similarly to the aforementioned FABP3 assay.
as §1

GST-FABP4 = GST-FABP4 (Mus musculus (Mouse), UniProt P04117); experiment: Test Example 13: affinity of FABP ligand using ANS, GST-FABP4; conditions: read-out: Kd value of FABP against the ligands, GST-FABP4; ANS fluorescence; average of three measurements±SE
GST-FABP4, sequence (P04117 whole entry): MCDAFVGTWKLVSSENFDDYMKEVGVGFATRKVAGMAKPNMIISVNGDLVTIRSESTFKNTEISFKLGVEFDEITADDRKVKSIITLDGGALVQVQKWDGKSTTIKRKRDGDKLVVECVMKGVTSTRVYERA
Experimental: After GST-FABP3 and GST-FABP4 were respectively expressed in the Escherichia coli [BL21 (DE3) strain], affinity purification was performed using a glutathione column.
Purification of the GST binding protein was performed using a GST purification kit (Takara Bio USA). After the Escherichia coli was recovered by centrifuging, the accessory extraction buffer and aluminum oxide powder were added and the mixture was ground in the mortar. The centrifuged supernatant was added to the accessory glutathione column and left stationary on ice for 30 min. Then, the supernatant in the column was thrown away, and the remaining matter was washed with the extraction buffer, and subsequently subjected to elution using an elution buffer including glutathione. The protein concentration of the elution product was calculated from the absorbance at 280 nm, and used as an ANS assay.
The fluorescence intensity at the respective ligand concentrations was converted to a relative value (%) against the ANS fluorescence intensity under the absence of ligand, then the dissociation constant Kd(nM) was calculated by a nonrecurring analysis using the following equation.
F: Relative fluorescence intensity at a certain condition (%);
Ka: Reciprocal of dissociation constant Kd (nM^−1);
Fmax*: Relative fluorescence intensity when FABP is fully occupied by ligands.

[5] = test system: MPTP Parkinson's disease model mice; experiment: Test Example 8: motor function in MPTP Parkinson's disease model animal; assay type: in vivo, mouse; conditions: 1.0 mg/kg p.o. daily 2 weeks, three weeks after MPTP, FIG. 8
Experimental: From 24 hours after the final administration of MPTP, the solvent or FABP3 ligand (compound of Example 3) (1.0 mg/kg, p.o., each group n=7) was administered once every day for 2 weeks. Three weeks after administration of MPTP, at which time motor dysfunction was observed, the motor function was evaluated by a rotarod test and beam walking test. […] It was confirmed in both tests that the ligand administered group was fully recovered from the motor dysfunction that developed after MPTP administration.

[6] = test system: MPTP Parkinson's disease model C57BL6 N mice; experiment: Test Example 9: motor function in MPTP Parkinson's disease model mice; assay type: in vivo, mouse; conditions: p.o. once every day (Example 1: 0.1, 0.5 or 1.0 mg/kg; others 1.0 mg/kg), three weeks after MPTP, FIG. 9
Experimental: MPTP (25 mg/kg, i.p.) was administered once every day for 5 consecutive days to a 10 week old male C57BL6 N mice to prepare a Parkinson's disease model mice. […] Three weeks after administration of MPTP, at which time motor dysfunction was observed, the motor function was evaluated by a rotarod test and beam walking test.

GST-FABP3, sequence (P11404 whole entry): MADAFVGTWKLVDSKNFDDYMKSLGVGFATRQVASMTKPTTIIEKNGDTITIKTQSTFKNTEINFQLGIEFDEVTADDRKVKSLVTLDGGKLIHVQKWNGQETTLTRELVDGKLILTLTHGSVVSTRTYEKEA

Kd (GST-FABP3): 2.22 ± 0.104 µM
IC50 (FABP3): 0.28 µM
IC50 (FABP4): 1.66 µM
Kd (GST-FABP4): 6.67 ± 1.4 µM
Compound: O=C(O)CCCOc1ccccc1-c1cc(-c2ccccc2)n(-c2ccc(Cl)c(Cl)c2)n1 [Example 3, 4-(2-(1-(3,4-Dichlorophenyl)-5-phenyl-1H-pyrazol-3-yl)phenoxy)butanoic acid]
number of TH and α-synuclein double positive cells [1]: tendency towards improvement
cognitive function by novel object recognition test and passive avoidance test [2]: significant effects
number of TH positive cells (dopamine neurons) [3]: improved significantly
novel object recognition test, cognitive dysfunction [4]: such dysfunction was not observed
beam walking test, number of footslips [5]: entirely recovered
rotarod test, Latency [5]: recovered fully
beam walking test, number of footslips [6]: improved significantly
rotarod test, Latency [6]: improved significantly
